Reference: publication PMC5078090, “In vivo screening and discovery of novel candidate thalidomide analogs in the zebrafish embryo and chicken embryo model systems” (Oncotarget, 2016)
“Also recorded” adds a separate entry of the source.

Columns and labels:
[1] = test system: fli1:EGFP zebrafish embryos; experiment: fli1:EGFP zebrafish embryo angiogenesis assay (intersegmental vessel outgrowth and number); format: in vivo; settings: for Anti-angiogenic activity (loss of ISVs or inhibition of ISV outgrowth): fli1:EGFP embryos, 24 h incubation, result in words; for minimal effective concentration: Danio rerio, 24 h, 24 hpf embryos exposed 24 h, screened 1-200 μg/mL, where no activity was seen the concentration shown is the lowest screened; for Lowest effective anti-angiogenic concentration, fli1:EGFP assay (molar): inhibition of vessel outgrowth and number, 24 h exposure
Method: To determine if our novel thalidomide analogs (Figure 1) had any effect on in vivo angiogenesis, we used fli1:EGFP embryos which express green fluorescent protein (GFP) on endothelial cells throughout development. Embryos were allowed to develop for 24 hours, then exposed to either vehicle or a compound of interest at the concentration range of 1 to 200 μg/mL. During this time the vasculature is rapidly expanding and developing new, naive intersegmental vessels (ISVs). The embryos were imaged after 24 hours of incubation with the drug (Figure 2A). […] We also observed that the potency of each compound varied.
Figure 2 The effect of novel thalidomide analogs on vessel length fli1:EGFP zebrafish were incubated with vehicle or compounds for 24 hours, at which point vessel outgrowth and number were measured. A. Images of zebrafish exposed to the vehicle or test compounds. […] Treatment with C4 (1.5 μg/mL), C18 (50 μg/mL), C81 (50 μg/mL), C82 (5 μg/mL), C83 (20 μg/mL) and C84 (50 μg/mL) show reduction in vessel out growth (white arrow) and in some cases loss of vessel (white asterisks). B. Stalk length & C. stalk number are reduced. Compounds are shown at the lowest concentration producing an effect. The data represent the mean + the standard error of the mean.
Zebrafish embryos were treated with analogs as previously described. Briefly, fli1:EGFP embryos were collected and embryos were allowed to develop for 24 hours. Embryos were dechorionated manually and exposed to test compounds or vehicle control (0.1% DMSO) for a further 24 hours. Embryos were anesthetized with 0.05% MS222 (Tricaine) (Sigma Aldrich) and live visualization of blood vessels was carried out.
(§1) A broad series of novel thalidomide-based compounds were chemically synthesized (WL, NHG and WDF, NIH), dissolved in DMSO, stored in stock concentrations between 10-100 mg/mL, and used at a final working DMSO concentration of 0.1%. The chemical structures of lead compounds of interest were confirmed by chemical characterization (purity >99.5%). Compounds were screened across a range of concentrations from 1-200 μg/mL to determine the lowest effective concentration.

WT Zebrafish = experiment: WT zebrafish embryo developmental defect (teratogenicity) screen; format: in vivo; settings: for Eye development / eye diameter in zebrafish embryos / Pectoral fin development / fin length in zebrafish embryos: Figure 4, result in words; for Lowest effective concentration, WT Zebrafish assay: screened 1-200 μg/mL, where no activity was seen the concentration shown is the lowest screened
[2] = test system: Tg(MPO::EGFP)^114 zebrafish; experiment: Tg(MPO::EGFP)^114 zebrafish tail fin clip assay of neutrophil migration to the wound site; format: in vivo; settings: for minimal effective concentration: Danio rerio, Neutrophil, fin clipped at 72 hpf, imaged at 24 h, screened 1-200 μg/mL, where no activity was seen the concentration shown is the lowest screened; for Effect on neutrophil migration to the wound site (anti-inflammatory activity): fin clipped 72 hpf embryos, result in words
Description: To assess the immunomodulatory effects of the thalidomide analogs across the concentration range used in the previous assay, the transgenic zebrafish line Tg(MPO::EGFP)^114 was used. These embryos express GFP tagged myeloperoxidase, marking neutrophils during the inflammatory response, for example following injury. […] This allowed us to subsequently assess the anti-inflammatory activity of each compound by immersing embryos in the test drug or vehicle. The embryos were examined for migration of neutrophils to the wound site. In comparison to control embryos (Figure 3A) compounds with anti-inflammatory properties had reduction of at least 50% of neutrophils recruited to the wound site (Figure 3). […] We also screened the previously identified six anti-angiogenic compounds of interest in the Tg(MPO::EGFP)^114 line.
Figure 3 The effect of thalidomide analogs on the inflammatory response to wound healing A. Zebrafish (72 hpf) embryos transgenic for a fluorescently tagged neutrophil marker Tg(MPO::EGFP)^114 were fin clipped to induce an inflammatory response and exposed to vehicle or a test compound. Broken line indicates the tail fin with cut and area of the wound site. […] The data represent the mean + the standard error of the mean.
Tg(MPO::EGFP)^114 embryos were tail fin clipped as previously detailed and incubated with test compounds or vehicle control at 72 hpf. Fish were imaged at 24 hours and the number of migratory neutrophils present at the wound site were counted. Compounds inducing an at least 50% reduction of neutrophils to the wound site were considered to have anti-inflammatory properties in this system. All larvae were assessed for viability and morphological integrity. A minimum of 10 embryos were used per concentration per drug. Error bars represent standard error of the mean.
as §1

chicken embryos = experiment: In ovo chicken embryo teratogenicity assay; format: in vivo, white leghorn chicken; settings: for Damage observed: HH stage 17-18 chicken embryos, 100 μg/mL; for Lowest effective concentration, Chicken assay: HH stage 17-18 embryos, where no activity was seen the concentration shown is the lowest screened; for Teratogenicity in these assays: chicken and zebrafish embryo assays together, result in words
Method: Compounds of interest were screened in chicken and/or zebrafish embryos (Figure 4), to determine if these compounds are teratogenic. The chicken embryo is well established as a model to determine the action of compounds upon development.
Fertilized white leghorn chicken embryos were incubated at 38°C and staged according to the Hamburger and Hamilton (HH) stages of development. Embryos were tested at HH stage 17-18 (day 2.5). Following membrane removal test compounds or vehicle control solutions were applied over the embryo. The eggs were sealed and the development of the embryos was monitored up to HH stage 30 (E9). A minimum of 3 embryos were used per concentration, per drug.

[3] = applied at HH stage 17-18, result in words

Structure (SMILES)	Anti-angiogenic activity (loss of ISVs or inhibition of ISV outgrowth) [1]	minimal effective concentration [1]	Lowest effective anti-angiogenic concentration, fli1:EGFP assay (molar) [1]	Eye development / eye diameter in zebrafish embryos (WT Zebrafish)	Pectoral fin development / fin length in zebrafish embryos (WT Zebrafish)	Lowest effective concentration, WT Zebrafish assay (WT Zebrafish)	minimal effective concentration [2]	Damage observed (chicken embryos)	Lowest effective concentration, Chicken assay (chicken embryos)	Defects in chicken embryo development (text and figure legend) (chicken embryos; [3])	Effect on neutrophil migration to the wound site (anti-inflammatory activity) [2]	Teratogenicity in these assays (chicken embryos)	Defects in chicken embryo development (text and figure legend) (chicken embryos; in vivo)	Migration of neutrophils relative to control ([2]; fin clipped embryos, Figure 3)
O=C1c2c(F)c(F)c(F)c(F)c2C(=O)N1c1ccc(F)cc1F [CPS49, reference compound]	reduction in vessel outgrowth (white arrow), loss of vascular connectivity and a decrease in the number of forming blood vessels	–	–	–	–	–	–	–	–	–	–	–	–	–
O=C1c2ccccc2C(=S)N1C1CCC(=S)NC1=S (centres unmarked) [Compound C4]	anti-angiogenic activity	1.5 to 100 µg/mL	4.9 µM	microopthalmia; also recorded: reductions in eye diameter	malformation in fin development	10 µg/mL	10 µg/mL	Necrotic YSM, hemorrhaging	100 µg/mL	hemorrhaging; also recorded: abnormal blood vessels and necrotic-like regions in the surrounding yolk sac membrane	–	–	–	–
O=C1NC(=S)CCC1N1C(=O)c2cccc([N+](=O)[O-])c2C1=O (centres unmarked) [Compound C7]	without anti-angiogenic activities	10 µg/mL	–	–	–	10 µg/mL	10 µg/mL	–	100 µg/mL	no effect	reduced neutrophil migration	non-teratogenic	–	–
CC(=O)Oc1ccc2c(c1)C(=O)N(C1CCC(=O)NC1=O)C2=O (centres unmarked) [Compound C18]	anti-angiogenic activity	–	–	reductions in eye diameter	reductions	50 µg/mL	50 µg/mL	Necrotic YSM, stunted growth	100 µg/mL	reduced body size compared to control embryos; also recorded: abnormal blood vessels and necrotic-like regions in the surrounding yolk sac membrane	significantly reduce neutrophil migration	–	–	–
Nc1ccc2c(c1)OC(=O)C(C1CCC(=O)NC1=O)C2=O (centres unmarked) [Compound C24]	–	50 µg/mL	–	–	–	50 µg/mL	50 µg/mL	Necrotic YSM, hemorrhaging	100 µg/mL	abnormal blood vessels and necrotic-like regions in the surrounding yolk sac membrane; also recorded: hemorrhaging and necrotic-like damage in the YSM; also recorded: twisted spinal cords, necrotic-like damage in the YSM and high death rates	reduced neutrophil migration	–	–	–
Nc1cccc2c1CN(C1CCC(=O)NC1=O)C2=S (centres unmarked) [Compound C29]	–	10 µg/mL	–	–	–	–	5 µg/mL	Twisted spines, hemorrhaging	100 µg/mL	hemorrhaging and necrotic-like damage in the YSM	reduced neutrophil migration	–	twisted spinal cords, necrotic-like damage in the YSM and high death rates	–
O=C1CCC(N2C(=O)c3ccncc3C2=O)C(=O)N1 (centres unmarked) [Compound C58, 5-Aza-thalidomide]	without anti-angiogenic activities	10 µg/mL	–	–	–	5 µg/mL	5 µg/mL	–	100 µg/mL	no effect	reduced neutrophil migration	non-teratogenic	–	10 % of the control
O=C1c2ccccc2C(=O)N1c1nc2ccc(C(F)(F)F)cc2s1 [Compound C59]	without anti-angiogenic activities	10 µg/mL	–	–	–	100 µg/mL	100 µg/mL	–	–	no effect	reduced neutrophil migration	non-teratogenic	–	–
CC(N1Cc2c(N)cccc2C1=O)C12CC3CC(CC(C3)C1)C2 (centres unmarked) [Compound C81]	anti-angiogenic activity	–	161.07 µM	–	reductions	10 µg/mL	50 µg/mL	Hemorrhaging, microopthalmia,	100 µg/mL	microphthalmia; also recorded: growth reduction and hemorrhaging throughout head	–	–	–	–
O=C1c2cccc([N+](=O)[O-])c2CN1C1C2CC3CC(C2)CC1C3 (centres unmarked) [Compound C82]	anti-angiogenic activity	–	–	reductions in eye diameter	reductions	5 µg/mL	5 µg/mL	Limb reduction defect	100 µg/mL	limb and digit defects	significantly reduce neutrophil migration	–	–	–
Nc1cccc2c1CN(C1C3CC4CC(C3)CC1C4)C2=O (centres unmarked) [Compound C83]	anti-angiogenic activity	–	–	reductions in eye diameter	–	10 µg/mL	20 µg/mL	Necrotic YSM, hemorrhaging	100 µg/mL	hemorrhaging; also recorded: abnormal blood vessels and necrotic-like regions in the surrounding yolk sac membrane	–	–	–	–
O=C1c2ccccc2CN1C12CC3CC(CC(O)(C3)C1)C2 [Compound C86]	without anti-angiogenic activities	10 µg/mL	–	–	–	–	100 µg/mL	–	100 µg/mL	no effect	reduced neutrophil migration	non-teratogenic	–	–
